Data from patent US10413593B2 (priority 2014, dated 2019).

What was measured:
[1] = Cumulative body weight change in DIO mice, daily s.c. dosing for nine days (Example 18, FIG. 1); format: in vivo, mice (strain C57Bl6/NTac); conditions: 9 nmol/kg s.c. daily, day 9
Method: Mice were administered a vehicle control or a dose of a peptide daily for nine days. […] The peptide of SEQ ID NO: 9 was administered at doses of 9 and 25 nmol/kg. Cumulative body weight change (grams) was measured each day of the study except on day 3. Results are shown in FIG. 1 and are expressed as mean±SEM.

[2] = Second study in DIO mice: body weight change percent relative to vehicle (Example 19, FIG. 2); format: in vivo, mice (strain C57Bl6/NTac); conditions: 3 nmol/kg daily, eight days
Method: In addition, the peptide of SEQ ID NO: 8 was administered at 15 nmol/kg, while the peptide of SEQ ID NOs: 10 and 11 were administered at 3 nmol/kg. Body weight was measured daily for eight days and body weight change is expressed as percent relative to vehicle (FIG. 2).

[3] = Cumulative food intake in DIO mice (Example 20, FIG. 3); conditions: 3 nmol/kg, after 8 days of dosing
Source text: For the studies in Examples 18, 19, 20, and 21, diet induced obesity (DIO) mice (strain C57Bl6/NTac; 20 weeks on a high fat diet, about 47 g) were divided into groups of eight mice per group and the initial average body weight, food intake and basal glucose of each group were matched before peptide administration. Each group of mice was subcutaneously injected daily with a dose of Co-agonist Peptide or vehicle control for 7 to 10 days. The peptides tested in this study were Co-agonist Peptides 1, 2, 3, 4, 5, and 6 (SEQ ID NOs: 6, 7, 8, 9, 10, and 11, respectively) at the doses that varied from 3 nmol/kg to 25 nmol/kg. Body weight, food intake and basal glucose were measured periodically during treatment.

In the case of `CCCCCCCCCCCCCCCC(=O)N[C@@H](CCC(=O)N[C@@H](CCC(=O)NCCCC[C@H](NC(=O)[C@H](CC(=O)O)NC(=O)[C@H](CO)NC(=O)[C@@H](NC(=O)[C@H](Cc1ccccc1)NC(=O)[C@@H](NC(=O)CNC(=O)[C@H](CCC(N)=O)NC(=O)[C@@H](CO)NC(=O)[C@@H](N)Cc1c[nH]cn1)[C@@H](C)O)[C@@H](C)O)C(=O)N[C@@H](CO)C(=O)N[C@@H](CCCCN)C(=O)N[C@@H](Cc1ccc(O)cc1)C(=O)N[C@@H](CC(C)C)C(=O)N[C@@H](CC(=O)O)C(=O)N[C@@H](C)C(=O)N[C@@H](CCCNC(=N)N)C(=O)N[C@@H](C)C(=O)N[C@@H](C)C(=O)N[C@@H](CCC(N)=O)C(=O)N[C@@H](CC(=O)O)C(=O)N[C@@H](Cc1ccccc1)C(=O)N[C@H](C(=O)N[C@@H](CCC(N)=O)C(=O)N[C@@H](Cc1c[nH]c2ccccc12)C(=O)N[C@@H](CC(C)C)C(=O)N[C@@H](CC(C)C)C(=O)N[C@@H](CC(=O)O)C(=O)N[C@H](C(N)=O)[C@@H](C)O)C(C)C)C(=O)O)C(=O)O` [SEQ ID NO: 10], the body weight loss [1] is reported as “approximately 13 grams”, the “weight loss, percent relative to vehicle” value [2] is reported as “approximately 17%” and the “change in food intake vs vehicle” value [3] is reported as “significant suppression of food intake”.
